Numbers after ± are expanded uncertainties.

By mass density is commonly meant the mass of a sample divided by its volume.

For the series the following is noted: 298.15 K; 101.33 kPa; Liquid; Vibrating tube method.
`CCCCO` [butan-1-ol]: the mass density turned out to be 805.78 ± 0.15 kg/m3.

In the case of `CCCC[N+]1(C)CCCC1.FC(F)(F)C(F)(F)[P-](F)(F)(F)(C(F)(F)C(F)(F)F)C(F)(F)C(F)(F)F`, the mass density worked out at 1582.63 ± 0.76 kg/m3.

Turning to `CCCCCCCCCCO` [decan-1-ol], the mass density came to 826.38 ± 0.14 kg/m3.

As to `CCCCCCO` [hexan-1-ol], the mass density amounted to 814.94 ± 0.15 kg/m3.

On to `CCc1ccccc1` [ethylbenzene], for which the mass density was found to be 862.97 ± 0.16 kg/m3.

Consider `c1ccccc1` [benzene], for which the mass density was found to be 873.53 ± 0.14 kg/m3.

In the case of `CCCCCCCCCCCCO` [dodecan-1-ol], the mass density is recorded as 823.35 ± 0.24 kg/m3.

For `CCCc1ccccc1` [propylbenzene], the mass density came to 858.62 ± 0.24 kg/m3.

For the molecule `CCCCCCCCO` [octan-1-ol], the mass density is 823.27 ± 0.14 kg/m3.

Turning to `Cc1ccccc1` [toluene], the mass density came out at 863.67 ± 0.14 kg/m3.

As for `c1ccsc1` [thiophene], the mass density came out at 1058.48 ± 0.28 kg/m3.

Values taken from the NIST ThermoML archive (doi:10.1016/j.fluid.2013.01.027).
